Here are results for six compounds from BindingDB's records for patent US20240352000 (Korea Research Institute of Chemical Technology, 2024).

pIC50: −log10 of the molar value.

By pIC50 is commonly meant the negative decadic logarithm of the IC50, by convention in mol/L. Higher therefore signals a low IC50.

Assay [1] has as its target T1, Epidermal growth factor receptor [DEL746-750,T790M] (Homo sapiens, UniProt P00533, DEL746-750/T790M).
T1 construct: gene EGFR
The assay is described as follows: Measurement of Inhibitory Ability of the Compounds Represented by Formula 1 According to the Present Invention Against Wild Type EGFR and EGFR Mutants. The method, then: (§1) An experiment to measure the activity of the compounds of the present invention against EGFR mutant enzymes was performed as follows using the HTRF system sold by Cisbio. For the EGFR del19/T790M mutant enzyme, a recombinant protein provided by Carna Biosciences was purchased and used, and for the EGFR del19/T790M/C797S mutant enzyme, a protein provided by SignalChem was purchased and used as an enzyme source.The composition of the assay buffer used for measuring the activity was 50 mM Tris-HCl pH 7.5, 100 mM NaCl, 7.5 mM MgCl2, 3 mM KCl, 0.01% Tween 20, 0.1% BSA, and 1 mM DTT. Here, an enzyme reaction was performed using […] and a peptide substrate labeled with biotin at a concentration of 0.5 mM. Analysis of the inhibitory effect of the compounds against the EGFR activity was conducted according to the following analysis reaction recipe.Component 1: 4 μL of an EGFR mutant enzymeComponent 2: 2 μL of a compound solutionComponent 3: 4 μL of ATP and a peptide labeled with biotinThe enzyme reaction was started by first mixing Component 1 and Component 2 and then adding Component 3. After reaction at 37° C. for 2 hours, […] consisting of streptavidin-XL665 and europium-labeled anti-phosphotyrosine antibody provided by Cisbio was added to the enzyme reaction solution and reacted at room temperature for 1 hour. Finally, the ratio of fluorescence values at 615 nm and 665 nm was obtained using the Envision equipment from Perkin-Elmer to quantitatively measure the enzyme activity and confirmed the inhibitory ability of the compounds.

Assay [2] deals with T2, Epidermal growth factor receptor [DEL746-750,T790M,C797S] (Homo sapiens, UniProt P00533, C797S/DEL746-750/T790M).
T2 construct: gene EGFR
The description is as above. The method, then:
as §1

T2 sequence (P00533 with tags, fused parts or gaps C797S/DEL746-750/T790M limits assumed): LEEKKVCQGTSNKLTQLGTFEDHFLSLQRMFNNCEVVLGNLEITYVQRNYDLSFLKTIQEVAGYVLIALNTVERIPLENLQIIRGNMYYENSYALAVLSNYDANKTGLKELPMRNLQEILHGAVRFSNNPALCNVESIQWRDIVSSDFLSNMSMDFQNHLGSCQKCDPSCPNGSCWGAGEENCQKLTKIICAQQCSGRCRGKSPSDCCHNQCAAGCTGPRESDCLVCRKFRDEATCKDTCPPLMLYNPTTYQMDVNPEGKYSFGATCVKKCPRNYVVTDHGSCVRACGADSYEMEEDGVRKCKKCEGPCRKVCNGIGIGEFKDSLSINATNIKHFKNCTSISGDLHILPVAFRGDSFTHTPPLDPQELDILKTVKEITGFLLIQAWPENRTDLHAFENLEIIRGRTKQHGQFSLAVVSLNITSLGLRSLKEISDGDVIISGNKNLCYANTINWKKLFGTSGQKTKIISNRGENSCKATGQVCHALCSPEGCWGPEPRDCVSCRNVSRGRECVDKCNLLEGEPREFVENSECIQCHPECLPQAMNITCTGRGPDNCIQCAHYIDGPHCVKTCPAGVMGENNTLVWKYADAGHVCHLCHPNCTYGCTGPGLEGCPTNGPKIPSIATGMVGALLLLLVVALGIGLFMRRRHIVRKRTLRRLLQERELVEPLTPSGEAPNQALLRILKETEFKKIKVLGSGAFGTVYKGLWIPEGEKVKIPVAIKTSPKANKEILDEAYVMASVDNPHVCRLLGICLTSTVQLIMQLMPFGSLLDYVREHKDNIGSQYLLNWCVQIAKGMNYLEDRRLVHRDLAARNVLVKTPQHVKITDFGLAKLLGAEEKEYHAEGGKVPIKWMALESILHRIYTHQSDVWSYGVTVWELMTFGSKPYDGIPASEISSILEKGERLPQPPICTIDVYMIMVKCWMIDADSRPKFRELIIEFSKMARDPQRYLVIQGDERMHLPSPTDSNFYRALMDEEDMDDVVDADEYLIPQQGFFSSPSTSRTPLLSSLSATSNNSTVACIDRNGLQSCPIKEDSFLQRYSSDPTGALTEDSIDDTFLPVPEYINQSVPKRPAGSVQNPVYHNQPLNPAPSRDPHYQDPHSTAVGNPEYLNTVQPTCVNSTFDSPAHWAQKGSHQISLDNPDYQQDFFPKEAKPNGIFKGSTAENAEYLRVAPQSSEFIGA
T1 sequence (P00533 with tags, fused parts or gaps DEL746-750/T790M limits assumed): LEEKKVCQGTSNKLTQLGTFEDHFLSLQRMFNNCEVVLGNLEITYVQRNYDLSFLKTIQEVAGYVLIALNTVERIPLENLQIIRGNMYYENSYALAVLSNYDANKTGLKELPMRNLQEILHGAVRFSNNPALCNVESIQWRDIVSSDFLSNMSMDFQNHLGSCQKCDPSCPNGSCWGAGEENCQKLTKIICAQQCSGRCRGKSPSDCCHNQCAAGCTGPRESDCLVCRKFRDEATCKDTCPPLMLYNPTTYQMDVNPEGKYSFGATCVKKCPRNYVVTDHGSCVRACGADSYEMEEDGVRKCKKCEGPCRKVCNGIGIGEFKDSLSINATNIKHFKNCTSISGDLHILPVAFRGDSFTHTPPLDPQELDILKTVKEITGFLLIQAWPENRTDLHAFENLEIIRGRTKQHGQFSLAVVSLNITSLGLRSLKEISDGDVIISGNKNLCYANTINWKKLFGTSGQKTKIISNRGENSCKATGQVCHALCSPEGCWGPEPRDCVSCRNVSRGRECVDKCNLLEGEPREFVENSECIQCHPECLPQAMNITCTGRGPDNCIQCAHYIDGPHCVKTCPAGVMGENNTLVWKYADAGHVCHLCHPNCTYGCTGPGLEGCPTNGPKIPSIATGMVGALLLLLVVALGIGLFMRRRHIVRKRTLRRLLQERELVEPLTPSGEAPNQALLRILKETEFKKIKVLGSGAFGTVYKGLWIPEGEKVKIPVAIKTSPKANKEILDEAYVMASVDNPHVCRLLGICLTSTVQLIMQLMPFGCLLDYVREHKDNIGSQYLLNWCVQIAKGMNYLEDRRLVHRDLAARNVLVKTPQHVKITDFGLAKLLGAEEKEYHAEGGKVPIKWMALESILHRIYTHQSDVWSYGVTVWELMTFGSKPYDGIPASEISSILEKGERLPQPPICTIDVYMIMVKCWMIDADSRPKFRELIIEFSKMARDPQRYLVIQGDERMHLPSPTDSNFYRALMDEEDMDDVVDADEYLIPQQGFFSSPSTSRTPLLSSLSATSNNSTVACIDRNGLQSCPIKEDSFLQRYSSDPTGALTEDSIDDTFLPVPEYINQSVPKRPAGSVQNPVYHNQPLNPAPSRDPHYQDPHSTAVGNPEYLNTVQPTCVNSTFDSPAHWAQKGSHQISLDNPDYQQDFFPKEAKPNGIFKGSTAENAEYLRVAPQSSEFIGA

On to `CCS(=O)(=O)N1CCc2cccc(Nc3nc(Nc4ccc(N5CCC(N6CCN(C)CC6)CC5)cc4OC)ncc3Cl)c21` [US20240352000, Example 13], for which the pIC50 in assay [1] is > 9.00.

In the case of `COc1cc(N(C)CCN(C)C)ccc1Nc1ncc(Cl)c(Nc2cccc3c2N(S(C)(=O)=O)CC3)n1` [US20240352000, Example 3], the negative logarithm of the IC50 (pIC50) in assay [2] was > 9.00.

As for `CCC(=O)N1CCc2cccc(Nc3nc(Nc4ccc(N5CCC(N6CCN(C)CC6)CC5)cc4OC)ncc3Cl)c21` [US20240352000, Example 14], the pIC50 in assay [2] was 7.30; in assay [1], 7.04.

`COc1cc(N2CCC(N3CCNCC3)CC2)ccc1Nc1ncc(Cl)c(Nc2cccc3c2N(S(C)(=O)=O)CC3)n1` [US20240352000, Example 17]: the negative-log IC50 (pIC50) in assay [2] was > 9.00.

`COc1cc(N2CCC(N3CCN(C)CC3)CC2)ccc1Nc1ncc(Cl)c(Nc2cccc3c2N(C(C)=O)CCC3)n1` [US20240352000, Example 15]: the pIC50 is 7.25 in assay [2] and 7.14 in assay [1].

Consider `COc1cc(N2CCC(N3CCN(C)CC3)CC2)ccc1Nc1ncc(Cl)c(Nc2cccc3c2N(C(C)=O)CC3)n1` [US20240352000, Example 12], for which the pIC50 in assay [2] was > 9.00.
